In patent US6369057B1, “Quinoxalines, processes for their preparation and their use” (Aventis Pharma Deutschland GmbH, priority 1991, dated 2002):
Converted amounts (≈) assume the structure as drawn.

tested on: HIV; assay: Test of preparations against HIV in cell culture (T-cell culture assay); type: cell-based; settings: Human immunodeficiency virus 1, 72 h; lowest concentration where no giant cells were observed; HIV-infected lymphocytes from donor blood, 3 days at 37° C.
Method: Test of Preparations Against HIV in Cell Culture
Complete medium additionally contains 20% fetal calf serum and 40 IU/ml recombinant interleukin 2.
Lymphocytes which have been isolated from fresh donor blood by means of Ficoll gradient centrifugation are cultured for 36 hours in complete medium with an addition of 2 μg/ml phytohemagglutinin (Wellcome) at 37° C. under 5% of CO2. After 10% of DMSO has been added, the cells are frozen at a density of 5 [formula]10^6 and stored in liquid nitrogen. For the test, the cells are defrosted, washed in RPMI medium and cultured for 3-4 days in the complete medium.
The test preparations were dissolved in DMSO at a concentration of 16.7 mg/ml and diluted in complete medium to 1 mg/ml.
0.4 ml of medium was introduced into 24-multiwell dishes. 0.1 ml of the dissolved preparation was added to the upper row of the dish, and, by transferring 0.1 ml portions, a geometric dilution series was established. Controls without preparation always contained 0.4 ml of complete medium containing 0.5% of DMSO. Lymphocyte cultures with a cell density of 5 [formula]10^5 cells/ml were infected by adding 1/50 volume supernatant from HIV-infected lymphocyte cultures. The titer of these culture supernatants was determined by end-point titration as 1-5 [formula]10^6 infectious units/ml. After 30 minutes' incubation at 37° C., the infected lymphocytes were removed by centrifugation and taken up in an equal volume of medium. From this cell suspension, 0.6 ml aliquots were transferred into all wells of the test plate. The mixtures were incubated for 3 days at 37° C.
The infected cell cultures were examined under the microscope for the presence of giant cells, which indicate active virus multiplication in the culture. The lowest concentration of preparation where no giant cells were observed was determined as inhibitory concentration against HIV. As a control, the supernatants from the culture plates were tested for the presence of HIV antigen with the aid of an HIV antigen test following the manufacturer's instructions (Organon).

| Structure (SMILES) | MIC |
| --- | --- |
| CC(C)=CCN1c2ccccc2NC(=S)C1C (racemic) [Example 7-1, (3RS)-3-Methyl-4-N-(3-methyl-2-buten-1-yl)-3,4-dihydroquinoxaline-2(1H)-thione] | < 0.16 µg/mL |
| C[C@H]1C(=O)Nc2ccc(Cl)cc2N1C(=O)OCc1ccccc1 [Example III, (3S)-4-N-(Benzyloxycarbonyl)-6-chloro-3-methyl-3,4-di-hydroquinoxalin-2(1H)-one] | 0.8 µg/mL (≈ 2.42 µM) |
| CC(C)=CCN1c2ccccc2NC(=O)C1(C)C [Example XX, 3,3-Dimethyl-4-N-(3-methyl-2-buten-1-yl)-3,4-dihydroquinoxalin-2(1H)-one] | < 4 µg/mL |
| CC(C)=CCN1c2cc(Cl)ccc2NC(=O)[C@H]1C [VI-B, (3R)-6-Chloro-3-methyl-4-N-(3-methyl-2-buten-1-yl)-3,4-dihydroquinoxalin-2(1H)-one] | 20 µg/mL (≈ 75.5 µM) |

same assay, conditions: lowest concentration where no giant cells were observed; HIV-infected lymphocytes from donor blood, 3 days at 37° C.

| Structure (SMILES) | T-cell culture assay MIC |
| --- | --- |
| CC(C)=CCN1c2cc(Cl)ccc2NC(=O)C1C (racemic) [VI-C, (3RS)-6-Chloro-3-methyl-4-N-(3-methyl-2-buten-1-yI)-3,4-dihydroquinoxalin-2(1H)-one] | <0.8 µg/mL |
| C=CCOC(=O)N1c2cc(Cl)ccc2NC(=O)C1C (stereo not shown) [Example 3-7] | 0.08 µg/mL |
| CC1C(=O)Nc2ccc(Cl)cc2N1Cc1ccccc1 (stereo not shown) [Example 3-21] | 0.16 µg/mL |
| CC(C)COC(=O)N1c2cc(Cl)ccc2NC(=O)C1C (stereo not shown) [Example 3-26] | 0.4 µg/mL |
| C=C(C)OC(=O)N1c2cc(OCCOC)ccc2NC(=O)C1CC (stereo not shown) [Example 3-33] | 0.4 µg/mL |
| C=C(C)OC(=O)N1c2cc(Cl)ccc2NC(=O)C1CCSC (stereo not shown) [Example 3-44] | <0.8 µg/mL |
| C=CCOC(=O)N1c2cc(Cl)ccc2NC(=O)C1CC(C)C (stereo not shown) [Example 3-48] | <0.8 µg/mL |
| CC(C)=CCN1c2c(Cl)cccc2NC(=O)C1C (stereo not shown) [Example 3-52] | >0.8 µg/mL |
| CC(C)=CCN1c2ccc(Cl)cc2NC(=O)C1C (stereo not shown) [Example 3-53] | >0.8 µg/mL |
| C=C(C)OC(=O)N1c2ccc(Cl)cc2NC(=O)C1CCSC (stereo not shown) [Example 3-62] | <4.0 µg/mL |
| CC(C)=CCN1c2ccc(F)cc2NC(=O)C1C (stereo not shown) [Example 3-64] | >0.8 µg/mL |
| C=C(C)OC(=O)N1c2ccc(F)cc2NC(=O)C1C (stereo not shown) [Example 3-66] | >0.08 µg/mL |
| CC(C)=CCN1c2cc(F)ccc2NC(=O)C1C (stereo not shown) [Example 3-67] | <0.8 µg/mL |
| C=C(C)OC(=O)N1c2ccc(Oc3ccccc3)cc2NC(=O)C1C (stereo not shown) [Example 3-73] | >0.4 µg/mL |
| C=CCOC(=O)N1c2cc(Cl)ccc2NC(=O)C1C(C)CC (stereo not shown) [Example 3-80] | 0.4 µg/mL |
| CCCCC(=O)N1c2cc(Cl)ccc2NC(=O)C1C (stereo not shown) [Example 3-87] | >0.8 µg/mL |
| CCCC(=O)N1c2cc(Cl)ccc2NC(=O)C1C (stereo not shown) [Example 3-88] | 0.8 µg/mL |
| CCC1(CC)C(=O)Nc2cc(C)ccc2N1CC=C(C)C [Example 6-20] | <0.8 µg/mL |
| CC(C)=CCN1c2ccc(F)cc2NC(=O)C1(C)C [Example 6-22] | >0.8 µg/mL |
| C=C(C)OC(=O)N1c2ccc(F)cc2NC(=O)C1(C)C [Example 6-32] | <0.08 µg/mL |
| C=C(C)OC(=O)N1c2ccc(OCC)cc2NC(=O)C1(C)C [Example 6-33] | >0.8 µg/mL |
| C=C(C)OC(=O)N1c2cc(C)c(C)cc2NC(=O)C1(C)C [Example 6-36] | <0.8 µg/mL |
| C=C(C)OC(=O)N1c2ccc(Oc3ccccc3)cc2NC(=O)C1(C)C [Example 6-39] | 0.4 µg/mL |
| CC1C(=O)Nc2ccc(Cl)cc2N1C1CCC1 (stereo not shown) [Example 10-4] | 0.4 µg/mL |
| CC(C)CCN1c2cc(Cl)ccc2NC(=O)C1C (stereo not shown) [Example 10-5] | <0.8 µg/mL |
| CC1C(=O)Nc2ccc(Cl)cc2N1Cc1ccc(Br)cc1 (stereo not shown) [Example 10-14] | <0.8 µg/mL |
| CC=CCOC(=O)N1c2cc(Cl)ccc2NC(=O)C1C (stereo not shown) [Example 11-1] | <0.8 µg/mL |
| C#CCOC(=O)N1c2cc(Cl)ccc2NC(=O)C1C (stereo not shown) [Example 11-3] | <0.8 µg/mL |
| CC#CCOC(=O)N1c2cc(Cl)ccc2NC(=O)C1C (stereo not shown) [Example 11-4] | 0.8 µg/mL |

molecular target: T1, HIV reverse transcriptase (RT) (Human immunodeficiency virus type 1 group M subtype B, UniProt P03366); assay: Assay for HIV reverse transcriptase inhibition (scintillation proximity assay); type: biochemical; settings: not given
T1 construct: The enzyme RT (from HIV cloned in E. coli); purchased HT-Biotechnology Ltd, Cambridge, UK; host or cells: E. coli
Method: Assay of the Substances for HIV Reverse Transcriptase Inhibition
The activity of reverse transcriptase (RT) was determined with the aid of a scintillation proximity assay (SPA).
The reagent kit for the RT-SPA was obtained from Amersham/Buchler (Braunschweig).
The enzyme RT (from HIV cloned in E. coli) originated from HT-Biotechnology Ltd, Cambridge, UK.
The assay was carried out using the manufacturer's (Amersham) protocol manual, with the following modifications: bovine serum albumin was added to the assay buffer to give an end concentration of 0.5 mg/ml the assay was carried out in Eppendorf reaction vessels, using 100 μl volume per batch the manufacturer's RT concentrate (5000 U/ml) was diluted in Tris-HCl buffer 20 mM; pH 7.2; 30% of glycerol, to an activity of 15 U per ml the incubation time for the mixtures was 60 minutes (37° C.) after stopping the reaction and “developing” with the bead suspension, 130 μl of mixture were transferred to 4.5 ml of Tris-HCl buffer, 10 mM; pH 7.4; 0.15 M NaCl, and the tritium activity was measured by means of a [formula]-counter.
For a pre-assay for inhibitory activity, the substances were dissolved in DMSO (stock solution c=1 mg/ml), and tested as a 10^−1, 10^−2, 10^−3, etc., dilution in DMSO.
To determine IC50 values, the inhibitor stock solutions were diluted further in Tris-HCl buffer, 50 mM, pH 8, and tested in suitable concentrations.
The concentration corresponding to a 50% enzyme inhibition was determined from a plot of RT activity versus log Clnh.

| Structure (SMILES) | IC50 |
| --- | --- |
| CC(C)=CCN1c2ccccc2NC(=S)C1C (racemic) [Example 7-1, (3RS)-3-Methyl-4-N-(3-methyl-2-buten-1-yl)-3,4-dihydroquinoxaline-2(1H)-thione] | 325 nM |

same assay, conditions: RT from HIV cloned in E. coli; SPA, 60 minutes (37° C.)

| Structure (SMILES) | Reverse Transcriptase Assay IC50 |
| --- | --- |
| CC(C)=CCN1c2cc(Cl)ccc2NC(=O)C1C (racemic) [VI-C, (3RS)-6-Chloro-3-methyl-4-N-(3-methyl-2-buten-1-yI)-3,4-dihydroquinoxalin-2(1H)-one] | 0.8 µg/mL |
| C=CCOC(=O)N1c2cc(Cl)ccc2NC(=O)C1C (stereo not shown) [Example 3-7] | 0.08 µg/mL |
| C=C(C)OC(=O)N1c2cc(Cl)ccc2NC(=O)C1CCC (stereo not shown) [Example 3-34] | 0.1 to 1 µg/mL |
| C=CCOC(=O)N1c2cc(Cl)ccc2NC(=O)C1CCC (stereo not shown) [Example 3-35] | 0.1 to 1 µg/mL |
| C=C(C)OC(=O)N1c2cc(Cl)ccc2NC(=O)C1C(C)C (stereo not shown) [Example 3-37] | 0.1 to 1 µg/mL |
| CSCC1C(=O)Nc2ccc(Cl)cc2N1C(=O)OC(C)C (stereo not shown) [Example 3-127] | 0.01 to 0.1 µg/mL |
| C=C(C)OC(=O)N1c2cc(OC)ccc2NC(=O)C1CSC (stereo not shown) [Example 3-128] | 0.01 to 0.1 µg/mL |
| COc1ccc2c(c1)N(C(=O)OC(C)C)C(CSC)C(=O)N2 (stereo not shown) [Example 3-129] | 0.01 to 0.1 µg/mL |
| C=C(C)OC(=O)N1c2cc(Cl)ccc2NC(=O)C1(C)C [Example 6-8] | 0.1 to 1 µg/mL |
| C=C(C)OC(=O)N1c2ccc(Cl)cc2NC(=O)C1(C)C [Example 6-9] | approx. 1 μg/ml |
| C=CCOC(=O)N1c2cc(Cl)ccc2NC(=S)C1CC (stereo not shown) [Example 7-15] | 0.01 to 0.1 µg/mL |
| C=C(C)OC(=O)N1c2cc(Cl)ccc2NC(=S)C1CCC (stereo not shown) [Example 7-17] | 0.01 to 0.1 µg/mL |
| C=CCOC(=O)N1c2cc(Cl)ccc2NC(=S)C1CCC (stereo not shown) [Example 7-18] | 0.01 to 0.1 µg/mL |
| CC1C(=S)Nc2ccc(Cl)cc2N1Cc1ccccn1 (stereo not shown) [Example 7-19] | 0.01 to 0.1 µg/mL |
| CC1C(=S)Nc2ccc(Cl)cc2N1Cc1cccnc1 (stereo not shown) [Example 7-20] | 0.1 to 1 µg/mL |
| CCOC(=O)N1c2cc(Cl)ccc2NC(=S)C1(C)C [Example 7-24] | <0.01 µg/mL |
| CCCOC(=O)N1c2cc(Cl)ccc2NC(=S)C1(C)C [Example 7-25] | <0.01 µg/mL |
| CCC1C(=S)Nc2ccc(Cl)cc2N1Cc1ccccn1 (stereo not shown) [Example 7-26] | 0.01 to 0.1 µg/mL |
| CSCC1C(=S)Nc2ccc(Cl)cc2N1C(=O)OC(C)C (stereo not shown) [Example 7-28] | <0.01 µg/mL |
| CSCC1C(=S)Nc2ccc(Cl)cc2N1Cc1ccccn1 (stereo not shown) [Example 7-29] | 0.01 to 0.1 µg/mL |
| C=C(C)OC(=O)N1c2cc(OC)ccc2NC(=S)C1CSC (stereo not shown) [Example 7-30] | <0.01 µg/mL |
| COc1ccc2c(c1)N(C(=O)OC(C)C)C(CSC)C(=S)N2 (stereo not shown) [Example 7-31] | <0.01 µg/mL |
| CC1C(=O)Nc2ccc(Cl)cc2N1Cc1ccsc1 (stereo not shown) [Example 10-34] | 0.1 to 1 µg/mL |
| CC1C(=O)Nc2ccc(Cl)cc2N1C(=O)SCc1ccccc1 (stereo not shown) [Example 11-5] | 0.1 to 1 µg/mL |
| C=CCSC(=O)N1c2cc(Cl)ccc2NC(=O)C1C (stereo not shown) [Example 11-6] | 0.1 to 1 µg/mL |
| C=C(C)COC(=O)N1c2cc(Cl)ccc2NC(=O)C1C (stereo not shown) [Example 11-7] | approx. 1 μg/ml |
| CSCCOC(=O)N1c2cc(Cl)ccc2NC(=O)C1C (stereo not shown) [Example 11-13] | approx. 1 μg/ml |
